Experiments:
[1] = Stability of compound in drinking water; format: physicochemical; conditions: drinking water pH=7-7.4, room temperature, 20-30 days
From the text: Previously, the inventors developed series of derivatives of the tetrazole, thiazole, and 1,2,3-triazole families that were thought to be reversible inhibitors of the cytochrome c oxidase (CcO) model and characterized as possible moderate inhibitors of mitochondrial respiration (Barile et al. (2012), Proceedings of the National Academy of Sciences of the United States of America, 109:7, pp. 2539-2543). In this research, a triphenyl phosphonium thiazole derivative (referred to herein as HG1a-1) was randomly selected. Overall, no mice died due to oral administration of compound during 18-20 months. […]
The C57BL/6 mice were maintained on a standard purified mouse diet (PicoLab 5053 Rodent Diet 20; Lab Diets) until they reached 2 months of age when the treatments started. […] Body weights were measured weekly at the same time each week. Food and water intake were measured once every month for 3-6 consecutive days at the same time each month. Water consumption was measured for 2 weeks prior to the start of administration. Compound was generated and modified for better permeability in to mitochondria, evaluated by HPLC, was 96%-97%. […] Aliquots were collected from each batch and measured by HPLC to confirm stability of the compound. […] Rectal body temperature was measured monthly, as described previously. Whole blood samples, and histopathology were analyzed after 14 months of treatment. […]

[2] = tested on: AMPK, FOXO1, SIRT3; test: qPCR and immunoblotting of hepatic glucose metabolism and longevity markers; format: in vivo, mouse
Protocol: Immunoblotting analyses. Western blot analyses carried out in mouse livers, heart and adipose tissues collected from aged mice after treatments. Proteins (40 μg) were separated by electrophoresis on a sodium dodecyl sulfate (SDS) 4-20% polyacrylamide gel under reducing conditions. Membranes (Amersham Hybond PVDF, Germany) were probed overnight at 4° C. using Total OX-OPHOS Rodent cocktail (ab110413, USA), Complex IV, AMPK γ1, PGC-1α and Pparγ, FOXO1, TNF-α, IL-6 (USA, abCAM) and then incubated with polyclonal Goat anti-mouse IgG H&R (1:2000, ab6789, USA) in blocking buffer for 2 h at room temperature. To assure equal loading and/or to normalize protein content, the membrane blots were incubated with mouse anti-β-actin monoclonal antibody (mAbcam8227). Proteins were visualized using a chemiluminescence ECL Western blotting detection reagent (Bio-rad, USA). Quantification of protein was performed by chemiluminescence blot scanning (Quantity One™ version 4.6.3. Bio Rad).
Gene expression & RT qPCR Analyses. Total RNA was isolated using a commercially available kit (OMEGA bio-tek, R6812-02) according to the manufacturer's instructions. cDNA was generated using the PrimeScript RT reagent kit (TAKARA, RR047A). Gene expression were determined by qPCR as described in the product manual. The analysis was evaluated by Bio-Rad Real-Time System (CFX Connect™).
RNAs from 10 mice (5 treated and 5 Ctrl.) VF fat or livers were isolated by using omega Bio-Tek reagents, and cDNA was transcribed by (TAKARA). qPCR was then performed by using iQ SYBR Green mastermix bioscience on a CFX96 Real-Time System/C1000 Thermal Cycler (Bio-Rad).

[3] = liver, 14 months treatment (FIG. 6A)

Cc1ncsc1CCOC(=O)C[P+](c1ccccc1)(c1ccccc1)c1ccccc1.[Br-] [HG1a-1, (2-(2-(4-Methylthiazol-5-yl)Ethoxy)-2-Oxoethyl) Triphenylphosphonium Bromide]
compound maintained intact in drinking water [1]: 95%-99
APMK amplified [2, 3]: 5 fold
FOXO1 amplified [2, 3]: 3 fold
SIRT3 amplified [2, 3]: one-fold
enhanced deacetylation of FoxO-1 ([2]; livers of treated mice): 3 fold
relative levels of phosphorylated AMPK increased ([2]; livers of treated mice): 5 fold
SIRT-3 level ([2]; treated group (FIG. 6A)): marked upgrade
